In PubChem BioAssay (NCI) one finds GI50 and TGI data, which are given here for nine molecules.

Some test systems named below: RPMI-8226 leukemia; HOP-62 NSCLC; OVCAR-3 ovarian; SF-268 CNS; 786-0 renal; TK-10 renal; SK-MEL-5 melanoma; SK-MEL-28 melanoma; SR leukemia; LOX IMVI melanoma.
Common to all, as to assay: DTP human tumour cell line panel, 48 h

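The compound was tested at five concentrations on cells cultured in 96-well plates, with a 48-hour exposure period. Here, GI50 denotes the concentration required for 50% inhibition of growth. TGI denotes the concentration required for complete inhibition of growth.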

Take `CCN1CCN(c2cc(C)nc(NCc3cc(Nc4ccnc5cc(Cl)ccc45)ccc3F)n2)CC1`: the GI50 (usually the concentration giving 50% growth inhibition) in the assay with RPMI-8226 leukemia was 2.13 µM; in the assay on HOP-62 NSCLC, 3.59 µM; with OVCAR-3 ovarian it was 2.94 µM; with SF-268 CNS, 4.09 µM; in the assay on 786-0 renal, 2.07 µM; in the assay on TK-10 renal it was 18.8 µM. The GI50 in the assay with SK-MEL-5 melanoma is 1.55 µM; in the assay with SK-MEL-28 melanoma, 1.84 µM; with SR leukemia, 2.14 µM; in the assay on LOX IMVI melanoma, 1.74 µM. For the same molecule, the TGI (commonly the concentration at which net growth stops) in the assay with RPMI-8226 leukemia came to 8.72 µM; in the assay with HOP-62 NSCLC it was 24.1 µM; in the assay on OVCAR-3 ovarian, 11.8 µM; in the assay on SF-268 CNS, 40 µM; with 786-0 renal, 5.88 µM; in the assay on TK-10 renal it was 45.4 µM. Moreover, the total growth inhibition concentration (TGI) was determined as 2.99 µM with SK-MEL-5 melanoma, 3.71 µM in the assay with SK-MEL-28 melanoma, 9.3 µM in the assay on SR leukemia and 3.6 µM with LOX IMVI melanoma.
On to `COC(=O)c1cccc2c1Oc1ccccc1S2`, for which the TGI with RPMI-8226 leukemia, in the assay on HOP-62 NSCLC, in the assay on OVCAR-3 ovarian, in the assay on SF-268 CNS, in the assay with 786-0 renal and in the assay on TK-10 renal was more than 100 µM in each case. Moreover, the TGI in the assay with SK-MEL-5 melanoma is 54.9 µM; in the assay with SK-MEL-28 melanoma, more than 100 µM; in the assay on SR leukemia, more than 100 µM; in the assay on LOX IMVI melanoma, more than 100 µM.
`NC(=O)C12CCC1C1CCCCC12N1CCOCC1` (centres undefined): the TGI in the assay on RPMI-8226 leukemia, in the assay with HOP-62 NSCLC, in the assay on OVCAR-3 ovarian, with SF-268 CNS, with 786-0 renal and with TK-10 renal was more than 100 µM in each case. The TGI with SK-MEL-5 melanoma, in the assay on SK-MEL-28 melanoma, with SR leukemia and in the assay with LOX IMVI melanoma was more than 100 µM throughout.
Take `COc1ccc(-c2cc3nccn3c(Nc3ncccc3C(N)=O)n2)cc1OC`: the GI50 with RPMI-8226 leukemia was 2.75 µM; with HOP-62 NSCLC it was 3.18 µM; in the assay with OVCAR-3 ovarian, more than 47 µM; in the assay with SF-268 CNS it was 3.65 µM; in the assay on 786-0 renal, 2.42 µM; in the assay with TK-10 renal, 0.391 µM. Further, the GI50 with SK-MEL-5 melanoma is 4.87 µM; with SK-MEL-28 melanoma, more than 100 µM; in the assay with SR leukemia, 0.275 µM; with LOX IMVI melanoma it was 0.807 µM. Also, the total growth inhibition concentration (TGI) with RPMI-8226 leukemia was more than 100 µM; in the assay on HOP-62 NSCLC, more than 100 µM; in the assay with OVCAR-3 ovarian it was more than 100 µM; with SF-268 CNS, more than 100 µM; with 786-0 renal, more than 100 µM; in the assay with TK-10 renal, more than 29.8 µM. Moreover, the TGI with SK-MEL-5 melanoma is more than 100 µM; in the assay with SK-MEL-28 melanoma, more than 100 µM; with SR leukemia, 21.4 µM; in the assay with LOX IMVI melanoma, more than 100 µM.
`NC(N)=N/N=C(/c1ccccc1)c1ccc(O)cc1O`: the TGI is 79.8 µM in the assay with RPMI-8226 leukemia; more than 100 µM with HOP-62 NSCLC; more than 100 µM in the assay with OVCAR-3 ovarian; more than 100 µM with SF-268 CNS; 96.4 µM with 786-0 renal; more than 100 µM with TK-10 renal. The total growth inhibition concentration (TGI) in the assay with SK-MEL-5 melanoma was 65.8 µM; with SK-MEL-28 melanoma, more than 100 µM; in the assay with SR leukemia, 60.8 µM; with LOX IMVI melanoma it was more than 100 µM.
Turning to `O=C(Nc1ccc([N+](=O)[O-])cc1)c1cc2ccccc2cc1O`, the concentration for 50% growth inhibition (GI50) with RPMI-8226 leukemia was 0.291 µM; with HOP-62 NSCLC, 0.939 µM; in the assay on OVCAR-3 ovarian, 0.397 µM; in the assay on SF-268 CNS it was 0.515 µM; with 786-0 renal, 0.399 µM; with TK-10 renal, 0.402 µM. Besides, the GI50 was 0.221 µM in the assay with SK-MEL-5 melanoma, 0.448 µM with SK-MEL-28 melanoma, 0.274 µM in the assay on SR leukemia and 0.405 µM with LOX IMVI melanoma. Further, the TGI came out at 0.727 µM in the assay on RPMI-8226 leukemia; 8.69 µM with HOP-62 NSCLC; 15.8 µM with OVCAR-3 ovarian; 15.2 µM in the assay on SF-268 CNS; 1.91 µM in the assay on 786-0 renal; 6.82 µM in the assay on TK-10 renal. The results for the TGI in the assay with SK-MEL-5 melanoma, with SK-MEL-28 melanoma and with SR leukemia were 0.534 µM, more than 36.5 µM and 1.05 µM, respectively.
For `C[C@@H]1CCC2[C@@H](C)[C@H](OC(=O)CCC(=O)NCCNC(=O)Cc3cc(=O)oc4cc(N(C)C)ccc34)O[C@@H]3O[C@]4(C)CC[C@@H]1C23OO4` (some centres undefined), the GI50 in the assay with RPMI-8226 leukemia is 0.378 µM; in the assay with HOP-62 NSCLC, 12.5 µM; in the assay on OVCAR-3 ovarian, 0.629 µM; in the assay with SF-268 CNS it was 5.25 µM; in the assay with 786-0 renal, 4.24 µM; in the assay with TK-10 renal it was 3.24 µM. Also, the GI50 in the assay on SK-MEL-5 melanoma was 1.48 µM; with SK-MEL-28 melanoma it was 17.4 µM; with SR leukemia, 0.561 µM; in the assay on LOX IMVI melanoma it was 0.566 µM. In addition, the TGI is 32.9 µM in the assay on RPMI-8226 leukemia; more than 62 µM in the assay on HOP-62 NSCLC; 18.1 µM with OVCAR-3 ovarian; more than 65.2 µM in the assay with SF-268 CNS; 65.2 µM in the assay on 786-0 renal; 18.6 µM with TK-10 renal. Further, the TGI was more than 39.3 µM in the assay on SK-MEL-5 melanoma, more than 100 µM in the assay with SK-MEL-28 melanoma, 6.83 µM with SR leukemia and 2.31 µM in the assay with LOX IMVI melanoma.
With `C=CC[C@@]1(C#N)C[C@H](C[C@]2(C#N)C[C@H](CCl)OC(C)(C)O2)OC(C)(C)O1`, the TGI with RPMI-8226 leukemia, in the assay with HOP-62 NSCLC, in the assay on OVCAR-3 ovarian, in the assay on SF-268 CNS, in the assay on 786-0 renal and in the assay on TK-10 renal was more than 100 µM throughout. The total growth inhibition concentration (TGI) in the assay with SK-MEL-5 melanoma, with SK-MEL-28 melanoma, in the assay on SR leukemia and in the assay with LOX IMVI melanoma was more than 100 µM in each case.
Turning to `CCC(C)c1cnc(CC(C)C)c(=O)[nH]1` (centres undefined), the TGI in the assay on RPMI-8226 leukemia, in the assay on HOP-62 NSCLC, in the assay with OVCAR-3 ovarian, with SF-268 CNS, with 786-0 renal and in the assay on TK-10 renal was more than 100 µM throughout. Moreover, the TGI in the assay with SK-MEL-5 melanoma, with SK-MEL-28 melanoma, in the assay with SR leukemia and with LOX IMVI melanoma was more than 100 µM in each case.
